In ChEMBL document CHEMBL5506059, “Cyanomethylquinolones as a New Class of Potential Multitargeting Broad-Spectrum Antibacterial Agents” (J Med Chem, 2024):
Values after ≈ are worked out from the molar mass of the structure shown.

Experiments:
Assay type in all cases: functional
Enterococcus faecalis = experiment: Antibacterial activity against Enterococcus faecalis clinical isolate assessed as inhibition of bacterial growth incubated for 24 hrs
Staphylococcus aureus [1] = experiment: Antibacterial activity against Staphylococcus aureus clinical isolate assessed as inhibition of bacterial growth incubated for 24 hrs
Pseudomonas aeruginosa [2] = experiment: Antibacterial activity against Pseudomonas aeruginosa ATCC 27853 assessed as inhibition of bacterial growth incubated for 24 hrs
Escherichia coli [3] = experiment: Antibacterial activity against Escherichia coli ATCC 25922 assessed as inhibition of bacterial growth incubated for 24 hrs
Pseudomonas aeruginosa [4] = experiment: Antibacterial activity against Pseudomonas aeruginosa clinical isolate assessed as inhibition of bacterial growth incubated for 24 hrs
Staphylococcus aureus [5] = experiment: Antibacterial activity against Staphylococcus aureus ATCC 25923 assessed as inhibition of bacterial growth incubated for 24 hrs
Klebsiella pneumoniae = experiment: Antibacterial activity against Klebsiella pneumoniae clinical isolate assessed as inhibition of bacterial growth incubated for 24 hrs
Escherichia coli [6] = experiment: Potency index, ratio of ciprofloxacin MIC to test compound MIC for antibacterial activity against Escherichia coli ATCC 25922 assessed as inhibition of bacterial growth incubated for 24 hrs
Staphylococcus aureus [7] = experiment: Antibacterial activity against Staphylococcus aureus ATCC 29213 assessed as inhibition of bacterial growth incubated for 24 hrs
Escherichia coli [8] = experiment: Antibacterial activity against Escherichia coli clinical isolate assessed as inhibition of bacterial growth incubated for 24 hrs
Staphylococcus aureus [9] = experiment: Antibacterial activity against methicillin resistant Staphylococcus aureus clinical isolate assessed as inhibition of bacterial growth incubated for 24 hrs
Acinetobacter baumannii = experiment: Antibacterial activity against Acinetobacter baumannii clinical isolate assessed as inhibition of bacterial growth incubated for 24 hrs
Escherichia coli [10] = experiment: Potency index, ratio of norfloxacin MIC to test compound MIC for antibacterial activity against Escherichia coli ATCC 25922 assessed as inhibition of bacterial growth incubated for 24 hrs
Pseudomonas aeruginosa [11] = experiment: Resistance development in Pseudomonas aeruginosa assessed as fold increase in MIC measured after 20 days relative to control; conditions: time 20 day
Staphylococcus aureus [12] = experiment: Resistance development in methicillin resistant Staphylococcus aureus assessed as fold increase in MIC measured after 20 days relative to control; conditions: time 20 day

Row | Compound | MIC (Enterococcus faecalis) [µg/mL] | MIC (Staphylococcus aureus [1]) [µg/mL] | MIC (Pseudomonas aeruginosa [2]) [µg/mL] | MIC (Escherichia coli [3]) [µg/mL] | MIC (Pseudomonas aeruginosa [4]) [µg/mL] | MIC (Staphylococcus aureus [5]) [µg/mL] | MIC (Klebsiella pneumoniae) [µg/mL] | Ratio (Escherichia coli [6]) | MIC (Staphylococcus aureus [7]) [µg/mL] | MIC (Escherichia coli [8]) [µg/mL] | MIC (Staphylococcus aureus [9]) [µg/mL] | MIC (Acinetobacter baumannii) [µg/mL] | Ratio (Escherichia coli [10]) | fold change (FC) (Pseudomonas aeruginosa [11]) | fold change (FC) (Staphylococcus aureus [12])
1 | C[C@H]1COc2c(CC(=O)O)c(F)cc3c(=O)c(C(=O)O)cn1c23 | 1 (≈ 3.11 µM) | 16 (≈ 49.8 µM) | 0.5 (≈ 1.56 µM) | 0.25 (≈ 0.778 µM) | 0.5 (≈ 1.56 µM) | 32 (≈ 99.6 µM) | 8 (≈ 24.9 µM) | 2 | 1 (≈ 3.11 µM) | 0.5 (≈ 1.56 µM) | 1 (≈ 3.11 µM) | 1 (≈ 3.11 µM) | 16 |  | 
2 | NC1CCN(c2c(F)cc3c(=O)c(C(=O)O)cn(C4CC4)c3c2Cl)C1 (stereo unspecified) [CLINAFLOXACIN] | 4 (≈ 10.9 µM) | 0.5 (≈ 1.37 µM) | 0.5 (≈ 1.37 µM) | 0.25 (≈ 0.683 µM) | 0.5 (≈ 1.37 µM) | 0.5 (≈ 1.37 µM) | 0.5 (≈ 1.37 µM) |  | 0.5 (≈ 1.37 µM) | 0.25 (≈ 0.683 µM) | 1 (≈ 2.73 µM) | 0.5 (≈ 1.37 µM) |  | 16 | 8
